Measurements reported in US20030124571A1, “Novel human septin and uses therefor” (The Government of the United States of America, priority 2000, published 2003).

Experiments:
[1] = system: M-NRP1 cells; assay: Apoptosis (DNA laddering, morphology), M-NRP1 cells; assay type: cell-based, rat; details: 24 hours; 10 ng/ml TGF-β, okadaic acid 30 nM, staurosporine 2 nM
Procedure: (§1) 2×10^5 M-NRP1 cells or NRP-154 cells were plated in 6-well dishes. After 24 hours, 2 ml DMEM/F12 containing 15 mM HEPES, 1% calf serum, and 0.1 μM dexamethasone were added to the plates. The cells were cultured at 37° C. for 24 hours and then detached by trypsinization.
(§2) Internucleosomal DNA ladders were detected with a modification (described below) of TACS apoptotic DNA ladder kit (Trevigen, Githersburg, Md.). Briefly, the detached cells were centrifuged at 600×g to form cell pellets. The cell pellets were then resuspended in 25 μl PBS and lysed by the addition of 25 μl of lysis buffer. DNA was purified from the mixture as directed by Trevigen.
(§3) The nicked ends of the DNA were ^32P-labeled by incubating 1 μg of DNA with 2.5 units of Klenow fragment of DNA Poll in the presence of 0.5 μCi of (α-^32P) dCTP (3 Ci/mmol, Dupont NEN, Boston, Mass.) for 30 min at room temperature in a 10 μl reaction volume containing 5 mM MgCl2 and 10 mM Tris-HCl (pH 7.5). One third of the labeled DNA was electrophoresed through 1.8% agarose-1×TAE at 70 V for 2 hours. Gels were dried and exposed to X-Omat AR (Kodak, Rochester, N.Y.) for about 1 hour.
Staurosporine and okadaic acid (Upstate Biotechnology Incorporated, Lake Placid, N.Y.) were dissolved in dimethyl sulfoxide (DMSO) and diluted to a final concentration of 2 nM and […], respectively, in 0.01% DMSO.
(§4) NRP-154 and M-NRP1 cells were treated with a control (i.e., the identical solution without the agent of interest) or with 10 ng/ml TGF-β, okadaic acid (30 nM) or staurosporine (2 nM) for 24 hours. Apoptosis was determined by DNA laddering, essentially as described in Example VA, above.

[2] = system: NRP-154 cells; assay: Apoptosis / cell death (DNA laddering, morphology), NRP-154 cells; assay type: cell-based, rat; details: 24 hours; okadaic acid 30 nM, staurosporine 2 nM
Procedure: as §1, §2
as §3, with “Gels were dried and exposed to X-Omat AR (Kodak, Rochester, N.Y.) for about 1 hour.” left out
as §4

[3] = system: cyclin A promoter construct (pCAL2) in M-NRP1 cells; assay: Cyclin A promoter construct pCAL2-luc luciferase assay, M-NRP1 cells; assay type: cell-based, rat; details: 24 hours of exposure to 10 ng/ml TGF-β
Procedure: (§5) M-NRP1 and NRP-154 cells were cultured in 10% fetal bovine serum as described by Chaudhary et al., (1998) J. Biol. Chem. 273: 17708-17712) and exposed to 10 ng/ml TGF-β1 for 24 hours.
(§6) M-NRP1 cells were transiently transfected with pCal-luc (a pCAL2 reporter construct described by Keeton et al., (1991) J. Biol. Chem. 266: 23048-23052) using the Lipofectamine (Gibco BRL Life Technologies, Gaithersburg, Md.) transfection reagent.
(§7) Activity of the transiently transfected cyclin A promoter construct, pCal2-luc, was assessed by a luciferase assay and measured using a luminometer. The basal activity (e.g., without TGF-β treatment) of pCAL2 was similar in MNRP-1 and NRP-154 cells.

[4] = system: COS cells; assay: TUNEL assay of transfected COS cells; assay type: cell-based, monkey; details: COS cells transfected with control vector, 10 ng/ml TGF-β for 24 hours
Procedure: COS cells were cultured as previously described (Section E, above). […] When these cells are transfected with ARTS and treatment with TGF-β they are induced to cell death.
COS cells were then transfected with control vector or wildtype ARTS, essentially as described above, and treated with 10 ng/ml TGF-β for 24 hours.
The apoptotic response of COS cells to TGF-β was assessed by a TUNEL assay ([…], now Roche, Indianapolis, Ind.) following the manufacturer's instructions.
COS cells were cultured and transfected, as described above, with equal concentrations of either pcDNA3 control vector, ARTS or M-ARTS-pcDNA3 using the Lipofectamine transfection reagent (Gibco BRL Life Technologies, Gaithersburg, Md.). The cells were treated with 1 o ng/ml TGF-β for 24 hours.
Apoptosis was examined in a TUNEL assay (Boehringer-Mannheim), according to the manufacturer's instructions.

[5] = system: NRP-154 cells; assay: Thymidine incorporation assay, NRP-154 cells; assay type: cell-based, rat; details: 24 hr treatment with 10 ng/ml TGF-β1
Procedure: (§8) M-NRP1 and NRP-154 cells were plated at 1×10^5 cells per well in 24 well plates and allowed to attach overnight. Incorporation of (^3H)-thymidine was measured by adding radioactivity for 3 hours, 24 hours after addition of control or 10 ng/ml TGF-β1. Plates were counted on a Packard Top Count. Parallel plates (e.g., those treated in an identical manner) were harvested by trypinization for counting in a Coulter Counter.

[6] = system: NRP-154 cells; details: 48-72 hours exposure to 10 ng/ml TGF-β; cited from earlier work
[7] = system: cyclin A promoter construct (pCAL2) in NRP-154 cells; assay: Cyclin A promoter construct pCAL2-luc luciferase assay, NRP-154 cells; assay type: cell-based, rat; details: 24 hours of treatment with 10 ng/ml TGF-β
Procedure: as §5, §6, §7

[8] = system: M-NRP1 cells; assay: TUNEL assay, M-NRP1 cells; assay type: cell-based, rat; details: 10 ng/ml TGF-β, 24 hours
Procedure: (§9) TUNEL assays were performed using the TACS In Situ Apoptosis Detection Kit (Trevigen). Briefly, NRP-154 and M-NRP1 cells were plated at 8×10^4 cells/ml in a 96 well plate and allowed to attach overnight. Cells were then treated with either 10 ng/ml TGF-β (R&D Systems, Inc., Minneapolis, Minn.), or control (i.e., the identical solution without TGF-β) for 24 hours, fixed with formaldehyde and analyzed for stained nuclei according to the manufacturer's instructions.

[9] = system: NRP-154 cells; assay: TUNEL assay, NRP-154 cells; assay type: cell-based, rat; details: 10 ng/ml TGF-β, 24 hours
Procedure: as §9

[10] = system: M-NRP1 cells; assay: Thymidine incorporation assay, M-NRP1 cells; assay type: cell-based, rat; details: 24 hr treatment with 10 ng/ml TGF-β1
Procedure: as §8

[11] = system: caspase 3 in NRP-154 cells; assay: Caspase 3 fluorescent activity assay, NRP-154 cells; assay type: cell-based, rat; details: 10 ng/ml TGF-β 24 hours
Procedure: Cells were seeded to 50% confluence in six-well plates in media containing 10% fetal calf serum overnight. Following 24 hours after transfection, cells media was changed to contain 1% fetal calf serum with or without 10 ng/ml TGF-β for additional 24 hours. Cells were treated with caspase 3 aldehyde inhibitor (Ac-DEVD-CHO) supplied with caspase 3 fluorescent activity kit according to the manufacturers' protocols (Pharmingen, San-Diego, Calif.). Results were read using FL-600 microplate fluorescence reader (Bio-Tek).

Molecule | apoptosis [1] | apoptosis [2] | activity of the pCal-luc reporter [3] | apoptosis (TUNEL) [4] | (3H)-thymidine uptake inhibited [5] | cell death [6] | pCAL2 activity [7] | TUNEL staining of nuclei [8] | TUNEL staining of nuclei [9] | (3H)-thymidine uptake stimulated [10] | caspase 3 activity [11]
C=C1[C@@H](O)[C@@H]2O[C@]3(CC[C@H](/C=C/[C@@H](C)[C@@H]4CC(C)=C[C@@]5(O[C@H](C[C@@](C)(O)C(=O)O)CC[C@H]5O)O4)O3)CC[C@H]2O[C@@H]1[C@@H](O)C[C@H](C)[C@H]1O[C@@]2(CCCCO2)CC[C@H]1C [okadaic acid] | remain sensitive to apoptosis | morphologically evident shrinkage, nuclear fragmentation, and loss of attachment characteristic of apoptosis |  |  |  |  |  |  |  |  | 
CN[C@@H]1C[C@H]2O[C@@](C)([C@@H]1OC)n1c3ccccc3c3c4c(c5c6ccccc6n2c5c31)C(=O)NC4 [staurosporine] | remain sensitive to apoptosis | morphologically evident shrinkage, nuclear fragmentation, and loss of attachment characteristic of apoptosis |  |  |  |  |  |  |  |  | 
TGF-β: recombinant human TGF-β1 (R&D Systems), transforming growth factor-β | resistant to apoptosis |  | unaffected | did not undergo apoptosis | greater than 80% | over 80% | strong decrease | most nuclei from M-NRP1 cells remained intact | strong TUNEL staining of apoptotic nuclei | 14% | caspase 3 was activated
